In patent publication US11485728B2, “Small molecules for the treatment of autoimmune diseases and cancer” (Athos Therapeutics, Inc., priority 2020, dated 2022):
Read-outs that look alike come from different tables or passages of the source.

What was measured:
[1] = system: IL17; assay: IL17 protein levels in human CD4 T cells (ELISA); format: cell-based
Experimental: (§1) Naïve human CD4 T cells were cultured in DMEM supplemented with 10% heat-inactivated FBS, 2 mM glutamine, 100 U/ml penicillin, 100 μg/ml streptomycin and 25 mM Hepes. Human CD4 T cells were treated with anti-CD3 and anti-CD28 (100 ng/ml) together with small molecule compounds (500 nM) for 5 days. FoxP3 and CD4 positive cells were stained and imaged in a BD LSRII flow cytometer. The gated area represents the percentage CD4^highFoxP3^high immune cell population. Furthermore, the same small molecule compounds were evaluated for their effects on IL17 protein levels in human CD4 T cells by using an ELISA assay (R&D systems, cat no. D1700).

[2] = system: gut microbiome; assay: Microbiome (shotgun metagenomic sequencing) of DSS-induced colitis mice; format: in vivo; conditions: for gut microbiome composition (in words): induced colitis conditions
[3] = pH solubility; format: physicochemical; conditions: for solubility at 24 h: aqueous solution, thermodynamic from solid, read-out: Solubility Concentration; for solubility higher than the solubility of compound 201: pH 7.4
Experimental: Saturated solutions of selected compounds were prepared at pH 1, 4, 6.5, and 7.4. The pH conditions selected are within the extremes of the normal physiological pH of the human gastrointestinal tract. Solubility testing of drug under different pH conditions was carried out by adding an excess amount of drug to each pH condition initiating with 1 mg/mL and then confirmed saturation by visual observation of undissolved material. The saturated solutions are continuously shaking at 6,000 rpm for 24 hours at room temperature. The saturated solutions were filtered through Millipore 0.22 um PVDF hydrophilic filters and subjected to HPLC to evaluate the solubility concentration of the test compound. Filtered saturated solutions were diluted with acetonitrile:water (50:50) within the calibration standard curve. A calibration curve of test compound contained […] standards at concentrations 0.25, 0.5, 1.0, 5.0, 10, 25, 50 and 100 μg/mL were prepared in acetonitrile:water (50:50).
Compounds were measured in filtered saturated solution using an Agilent 1260 Infinity II Lab LC Series HPLC (1260 quat pump, 1260 vial autosampler, ICC column oven, 1260 DAD WR detector). The chromatographic separation was achieved by Phenomenex Synergi Polar RP column (150×4.6 mm, 4 μm, 80 Å). The mobile phase was gradient (A: water with 0.1% trifluoroacetic acid, B: acetonitrile with 0.1% trifluoroacetic acid; A/B (99:1) from 0 minute; to A/B (1:99) from 0 to 10 minutes; A/B (1:99) from 10 to 12 minutes; to A/B (99:1) from 12 to 12.1 minutes; A/B (99:1) from 12.1 to 13 minutes) pumped at a flow rate of 1 mL/min. The detection of the eluent was monitored at 254 nm. The column oven was set at 35° C. Injection volume was 10 μL, unless otherwise specified. Data acquisition and peak integrations were obtained by OpenLAB CDS Version 2.4 (Agilent) operating with Windows (Microsoft).
Solubility is the ability of a drug to dissolve in an aqueous solution under different pH conditions. It is defined as the amount of substance that passes into solution to achieve a saturated solution at a constant temperature and pressure. The purpose of this study was to determine the solubility of selected compounds under different pH conditions and determine whether an oral solution is feasible or a suspension would be better to support the drug formulation process for pre-clinical studies. The pH conditions selected were within the extremes of the normal physiological pH of the human gastrointestinal tract, such as pH 1, pH 4, pH 6.5, and pH 7.4.

[4] = system: Naïve human CD4 T cells; assay: Differentiation of naïve human CD4 T cells into FoxP3+ Tregs (flow cytometry); format: cell-based; conditions: 500 nM, 5 days; for Tregs (%): anti-CD3 and anti-CD28 100 ng/ml, CD4highFoxP3high population; for increase of the number of Tregs over untreated: baseline 3.2%
Experimental: as §1

[5] = system: CaCo-2 intestinal epithelial cells; assay: Transepithelial resistance (TEER) of CaCo-2 cells exposed to TNFα and IFNγ; format: cell-based; conditions: for epithelial barrier resistance: TNFα 10 ng/ml, IFNγ 100 ng/ml, compounds 1 μM, 48 hrs of treatment; for transepithelial resistance after combined TNFα and IFNγ exposure: TNFα 20 ng/ml, IFNγ 200 ng/ml, 24 hrs of treatment
Experimental: The intestinal epithelial barrier plays a central role in the pathophysiology of multiple chronic inflammatory and autoimmune diseases. Intestinal epithelial cells provide a physical barrier that interacts with immune cells and protects internal cavities from mucosal bacterial and antigen intrusion. Intestinal inflammation during IBD is associated with disruption of this barrier and cytokines like TNFα play important roles.
At confluence TEER is measured and TNFα along with compounds are added as described above. Compound-induced TEER is determined after correction with measurement prior to treatment.

[6] = system: J82; assay: J82 bladder cancer cell viability (Real-Time-Glo); format: cell-based; conditions: Homo sapiens, 72 hr, read-out: IC50, Cell line: J82
Experimental: To determine the plating density for cell viability assays, for each cell line, cells were counted and diluted to final densities of 2.5, 5, 10 and 20 thousand per 100 μl of their respective growth media per well in 96 well plates. A Promega Real-Time-Glo cell viability kit was used to determine the optimal concentration for cell plating so that each cell line would be within the linear part of its growth curve after 72 hrs in culture. For the determination of test compound IC50s different cancer cell lines were plated in 96 well plates in the pre-determined optimal density for each cell line. Test compounds were then added at different concentrations for the creation of six-point curve and cell density was determined using the Promega Real-Time-Glo cell viability kit after 24, 48, and 72 hrs in culture. Test compound 72 hr IC50s were calculated using the AAT Bioquest IC50 calculator.

[7] = DSS colitis mice, 25 mg/kg PO daily, p<0.05
[8] = CaCo-2, TNFα along with compounds

Structure (SMILES) | IL17 protein levels [1] | Bacteroidetes phylum abundance [2, 7] | Proteobacteria phylum abundance [2, 7] | gut microbiome composition (in words) [2] | solubility at 24 h ([3]; pH 6.5, aqueous buffer) [µg/mL] | solubility at 24 h ([3]; pH 7.4, aqueous buffer) [µg/mL] | solubility higher than the solubility of compound 201 [3] [fold] | Tregs (%) [4] [%] | increase of the number of Tregs over untreated [4] [fold] | epithelial barrier resistance [5] | transepithelial resistance after combined TNFα and IFNγ exposure [5] | TEER ([5]; vs control group) | solubility at 24 h ([3]; pH 4, aqueous buffer) [µg/mL] | IC50 [6] [µM] | solubility at 24 h ([3]; pH 1, simulated gastric fluid) [µg/mL] | TEER [5, 8] | Firmicutes phylum abundance [2, 7] | Verrucomicrobia phylum abundance [2, 7]
COc1cc2c(NC3CCOCC3)nc(N3CCC(F)(F)CC3)nc2cc1OCCCN1CCCC1 [Compound 2, 2-(4,4-difluoropiperidin-1-yl)-6-methoxy-7-(3-(pyrrolidin-1-yl)propoxy)-N-(tetrahydro-2H-pyran-4-yl)quinazolin-4-amine] | do not have an effect | increase | increase | significantly altered the gut microbiome composition and shifted it towards eubiosis | 27500 | 449 | 40 | 20.1 | 6.28 | recovered epithelial barrier resistance levels back to those of untreated cells | ameliorated the disruptive effects | + |  |  |  |  |  | 
COc1cc2c(NC3COC3)nc(N3CCC(F)(F)CC3)nc2cc1OCCCN1CCCC1 [Compound 11, 2-(4,4-difluoropiperidin-1-yl)-6-methoxy-N-(oxetan-3-yl)-7-(3-(pyrrolidin-1-yl)propoxy)quinazolin-4-amine] |  |  |  |  | 3180 | 245 |  |  |  |  |  |  | 4450 |  |  |  |  | 
COc1cc2c(NC3CCN(C(C)C)CC3)nc(N3CCC(F)(F)CC3)nc2cc1OCCCN1CCCC1 [Compound 400, 2-(4,4-difluoropiperidin-1-yl)-N-(1-isopropylpiperidin-4-yl)-6-methoxy-7-(3-(pyrrolidin-1-yl)propoxy)quinazolin-4-amine, reference compound] | significantly suppresses |  |  |  | 7510 | 11 |  | 4.7 | 1.46 | increased intestinal permeability |  | − | 13200 | 5 to 10 | 22800 |  |  | 
COc1cc2c(Nc3ccncc3)nc(N3CCC(F)(F)CC3)nc2cc1OCCCN1CCCC1 [Compound 7, 2-(4,4-difluoropiperidin-1-yl)-6-methoxy-N-(pyridin-4-yl)-7-(3-(pyrrolidin-1-yl)propoxy)quinazolin-4-amine] |  |  |  |  |  |  |  |  |  | recovered epithelial barrier resistance levels back to those of untreated cells |  |  |  | 1 to 5 |  | − |  | 
COc1cc2c(NC3CCS(=O)(=O)CC3)nc(N3CCC(F)(F)CC3)nc2cc1OCCCN1CCCC1 [Compound 1, 4-((2-(4,4-difluoropiperidin-1-yl)-6-methoxy-7-(3-(pyrrolidin-1-yl)propoxy)quinazolin-4-yl)amino)tetrahydro-2H-thiopyran 1,1-dioxide] |  | increase |  | significantly altered the gut microbiome composition and shifted it towards eubiosis | 6050 | 424 | 40 |  |  | recovered epithelial barrier resistance levels back to those of untreated cells | ameliorated the disruptive effects | + | 11600 |  |  |  | significant decrease | increase
COc1cc2c(NC3CCOCC3)nc(N3CCCC3)nc2cc1OCCCN1CCCC1 [Compound 164, 6-methoxy-2-(pyrrolidin-1-yl)-7-(3-(pyrrolidin-1-yl)propoxy)-N-(tetrahydro-2H-pyran-4-yl)quinazolin-4-amine] |  |  |  |  |  |  |  |  |  |  |  |  |  |  |  | ++ |  | 
